According to publication PMC9603946, “On the Sensitivity of the Virion Envelope to Lipid Peroxidation” (Microbiology Spectrum, 2022):
Like-named read-outs stand apart in the source and are kept apart here. Marks after values point to notes of the source that are not given here.

Assays:
Vero cells [1] = test: Vero cell lipid peroxidation probed with liperfluo; format: cell-based, African green monkey; details: Chlorocebus sabaeus, Vero, Liperfluo probe, read-out: CP50 (the source's name)
Protocol: The effects of peroxidators have been commonly evaluated against purified lipids and liposomes as a proxy, but they have not been evaluated against virions ([50], [53][–][55]). We instead directly evaluated the extent of virion lipid peroxidation.
To evaluate cell lipid peroxidation using liperfluo, 7.5 × 10^3 Vero cells were seeded into each well of 96-well plates and incubated for 18 h at 37°C in 5% CO2. […] Two hours later, the cells were washed twice, and the fluorescence was evaluated in a TECAN Infinite M200 Pro at 515 nm excitation and 545 nm emission.
To evaluate the effects of a lipid soluble antioxidant, cells or virions were preloaded with vitamin E-BSA for 3 h at 37°C. Vitamin E-BSA containing medium was removed, and the cells were washed twice with DMEM. Liperfluo (20 or 10 μM for cells or virions, respectively) or C11-Bodipy (1 μM for cells or 0.1 mol% for virions) were preloaded into the cells or virions for 30 min at 37°C.
To evaluate the effects of water soluble antioxidants, liperfluo (20 μM for cells or 10 μM for virions) or C11-Bodipy (1 μM for cells or 0.1 mol% for virions) were preloaded into the cells or virions for 30 min at 37°C. […] Fluorescence was evaluated in a TECAN Infinite M200 Pro at 515 nm excitation and 545 nm emission for liperfluo or at 550 nm excitation and 580 to 630 nm emission for C11-Bodipy.

HFF cells = test: HFF cell viability after 2 h exposure to lipoperoxidators (CellTiter-Glo); details: HFF
Protocol: (§1) The cells were washed twice with warm DMEM before a 100 μL lipoperoxidator solution was transferred with a multichannel pipette from the plate containing the drug dilutions in technical triplicates. The cells were incubated with peroxidators for 2 h at 37°C. Then, the medium was removed, and the cells were washed twice with DMEM at 37°C. The plates were cooled down to RT, and the medium was removed. Then, 50 μL phenol red free DMEM and 50 μL CellTiter-glo Luminiscent Cell Viability Assay (Promega, G7571/2/3) were added and mixed in an orbital shaker for 2 min. Afterwards, 80 μL of the mix was transferred onto white 96-well plates and incubated for 10 min at RT for signal stabilization. The luminescence was read in the Glomax Multidetection System (Promega) with an integration time of 0.5 s.
(§2) The means of the technical triplicates were normalized to the means of the vehicle controls, analyzed via nonlinear regression dose responses, and graphed using GraphPad Prism 9.0. Three or four independent biological replicates were performed for each treatment (n = 3 or 4).
(§3) To evaluate the effects of lipid soluble antioxidants, 10 μM vitamin E was loaded onto carrier 1% BSA in the dark for 4.5 h at RT. The cells were washed twice with DMEM at 37°C and preloaded with 100 μL of 10 μM vitamin E in BSA carrier for 3 h at 37°C. The cells were washed twice again before the addition of any lipoperoxidators. Peroxidators were then added to the cells at working concentrations and incubated for 2 h at 37°C. The peroxidation solution was then removed, and the cells were washed twice with DMEM before analyzing viability. To evaluate the effects of a water soluble antioxidant, the cells were treated with 10 μM vitamin C (final concentration) simultaneously with the lipoperoxidators.

[2] = as above; details: human, CC50, HFF
Protocol: as §1, §2, §3

Vero cells [3] = test: Vero cell viability after 2 h exposure to lipoperoxidators (CellTiter-Glo); details: Vero
Protocol: as §1, §2, §3

[4] = as above; details: African green monkey, CC50, Vero
Protocol: as §1, §2, §3

[5] = preloaded with vitamin E (10 μM, BSA carrier)

In the case of `CC(C)CC(C)(C#N)N=NC(C)(C#N)CC(C)C` (stereo not drawn) [AMVN, 2,2′-azobis(2,4-dimethylvaleronitrile)], the EC50 (Vero cells [1]; no antioxidant) is reported as 12.6 mM, the EC50 (Vero cells [1]; vitamin C) is reported as 11.1 mM and the EC50 (Vero cells [1]; vitamin E) is reported as 16.1 mM. For the same compound, the “concentration from which HFF viability was affected” value (HFF cells) was 2 mM, the “PI, CC50 (antioxidant)/CC50” value (HFF cells; vitamin C) was 0.9 and the “PI, CC50 (antioxidant)/CC50” value (HFF cells; vitamin E) was 1.0. For the same compound, the CC50 at 2 h ([2]; no antioxidant, 2 h at 37°C) was 4.8 mM, the CC50 at 2 h [2, 5] was 4.9 mM and the CC50 at 2 h ([2]; with vitamin C (10 μM)) was 4.4 mM. The “concentration of maximal inhibition of cell viability” value (Vero cells [3]) was 10 mM, the “PI, CC50 (antioxidant)/CC50” value (Vero cells [3]; vitamin C) was 0.8 and the “PI, CC50 (antioxidant)/CC50” value (Vero cells [3]; vitamin E) was 1.2^d. The CC50 at 2 h ([4]; no antioxidant, 2 h at 37°C) was 4 mM, the CC50 at 2 h [4, 5] was 4.6 mM and the CC50 at 2 h ([4]; with vitamin C (10 μM)) was 3.3 mM.
